Reference: the supplement of paper PMC6965134
± gives the standard deviation of the averaged measurements.

Assay: TIMS collisional cross section (CCS, N2) of the lipid ion; higher = larger ion cross section
Conditions: ionization mode: negative, one isomer drawn
Procedure: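 Lipid extracts of human plasma (NIST SRM 1950), mouse liver or HeLa cells were separated by nanoflow C18 LC (30 min gradient) and analysed by TIMS-PASEF on a timsTOF Pro. Ion mobility was calibrated with the Agilent tuning mix (negative mode ions) and converted to collisional cross sections (Mason–Schamp, N2).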

[1] = sample type: Human plasma, ion (formula + adduct): [C40H80NO7P+HCOO] 1-
[2] = sample type: Human plasma, ion (formula + adduct): [C40H78NO7P-CH3] 1-
[3] = sample type: Human plasma, ion (formula + adduct): [C44H80NO7P+AcO] 1-
[4] = sample type: Human plasma, ion (formula + adduct): [C46H84NO7P-CH3] 1-
[5] = sample type: Mouse Liver, ion (formula + adduct): [C46H84NO7P-CH3] 1-
[6] = sample type: Human plasma, ion (formula + adduct): [C46H82NO7P+HCOO] 1-
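Also: lipids from MTBE extraction, five replicate injections per sample, 100 ms TIMS ramp spanning 0.6–1.95 Vs/cm², lipid identity assigned from PASEF MS/MS spectra.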

In the case of `CCCCCCCCCCCCCCCCCC(=O)O[C@H](COCCCCCCCCCCCCCC)COP(=O)([O-])OCC[N+](C)(C)C` [PC O- 14:0@_18:0], the “TIMS collisional cross section” value (sample type: Mouse Liver, ion (formula + adduct): [C40H82NO7P+HCOO] 1-) is reported as 287.2 Å².
With `CCCCCCCC/C=C\CCCCCCCC(=O)O[C@H](COCCCCCCCCCCCCCC)COP(=O)([O-])OCC[N+](C)(C)C` [PC O- 14:0@_18:1] the “TIMS collisional cross section” value [1] was 286.1 Å².
In the case of `CCCCC/C=C\C/C=C\CCCCCCCC(=O)O[C@H](COCCCCCCCCCCCCCC)COP(=O)([O-])OCC[N+](C)(C)C` [PC O- 14:0@_18:2], the “TIMS collisional cross section” value [2] is reported as 265.6 Å².
In the case of `CCCCC/C=C\C/C=C\C/C=C\C/C=C\CCCC(=O)O[C@H](COCCCCCCCCCCCCCC)COP(=O)([O-])OCC[N+](C)(C)C` [PC O- 14:0@_20:4], the “TIMS collisional cross section” value (sample type: Human plasma, ion (formula + adduct): [C42H78NO7P-CH3] 1-) is reported as 270.6 Å².
For `CCCCC/C=C\C/C=C\C/C=C\C/C=C\CCCC(=O)O[C@H](COCCCCCCCCCCCCCCC)COP(=O)([O-])OCC[N+](C)(C)C` [PC O- 15:0@_20:4], the “TIMS collisional cross section” value (sample type: Human plasma, ion (formula + adduct): [C43H80NO7P-H] 1-) was 276.3 Å².
With `CCCCCCCCCCCCCCCCOC[C@H](COP(=O)([O-])OCC[N+](C)(C)C)OC(=O)CCCCCCCCCCCCC` [PC O- 16:0@_14:0] the “TIMS collisional cross section” value (sample type: Human plasma, ion (formula + adduct): [C38H78NO7P+HCOO] 1-) was 282.2 Å².
With `CCCCC/C=C\C/C=C\CCCCCCCC(=O)O[C@H](COCCCCCCCCCCCCCCCC)COP(=O)([O-])OCC[N+](C)(C)C` [PC O- 16:0@_18:2] the “TIMS collisional cross section” value (sample type: Human plasma, ion (formula + adduct): [C42H82NO7P+HCOO] 1-) was 288.8 Å², the “TIMS collisional cross section” value (sample type: Human plasma, ion (formula + adduct): [C42H82NO7P-CH3] 1-) was 271.8 Å² and the “TIMS collisional cross section” value (sample type: Mouse Liver, ion (formula + adduct): [C42H82NO7P+HCOO] 1-) was 290 Å².
With `CCCCCCCCCC/C=C\CCCCCCCC(=O)O[C@H](COCCCCCCCCCCCCCCCC)COP(=O)([O-])OCC[N+](C)(C)C` [PC O- 16:0@_20:1] the “TIMS collisional cross section” value (sample type: Mouse Liver, ion (formula + adduct): [C44H88NO7P-CH3] 1-) was 279.7 Å².
With `CCCCC/C=C\C/C=C\C/C=C\C/C=C\CCCC(=O)O[C@H](COCCCCCCCCCCCCCCCC)COP(=O)([O-])OCC[N+](C)(C)C` [PC O- 16:0@_20:4] the “TIMS collisional cross section” value (sample type: Human plasma, ion (formula + adduct): [C44H82NO7P+AcO] 1-) was 299.9 Å², the “TIMS collisional cross section” value (sample type: Human plasma, ion (formula + adduct): [C44H82NO7P+HCOO] 1-) was 293.3 Å² and the “TIMS collisional cross section” value (sample type: Mouse Liver, ion (formula + adduct): [C44H82NO7P+HCOO] 1-) was 292.7 Å².
For `CC/C=C\C/C=C\C/C=C\C/C=C\C/C=C\CCCC(=O)O[C@H](COCCCCCCCCCCCCCCCC)COP(=O)([O-])OCC[N+](C)(C)C` [PC O- 16:0@_20:5], the “TIMS collisional cross section” value [3] was 298.5 Å².
With `CC/C=C\C/C=C\C/C=C\C/C=C\C/C=C\CCCCCC(=O)OC(COCCCCCCCCCCCCCCCC)COP(=O)([O-])OCC[N+](C)(C)C` (configuration not stated) [PC O- 16:0@_22:5] the “TIMS collisional cross section” value [4] was 281.3 Å² and the “TIMS collisional cross section” value [5] was 280.2 Å².
With `CC/C=C\C/C=C\C/C=C\C/C=C\C/C=C\C/C=C\CCC(=O)O[C@H](COCCCCCCCCCCCCCCCC)COP(=O)([O-])OCC[N+](C)(C)C` [PC O- 16:0@_22:6] the “TIMS collisional cross section” value [6] was 298.4 Å² and the “TIMS collisional cross section” value (sample type: Mouse Liver, ion (formula + adduct): [C46H82NO7P+HCOO] 1-) was 296.7 Å².
With `CCCCCCCCCCCCCCCCOC[C@H](COP(=O)([O-])OCC[N+](C)(C)C)OC(=O)CCCCCCCCCCCCCCC` [PC O- 16:0_16:0] the “TIMS collisional cross section” value (sample type: Human plasma, ion (formula + adduct): [C40H82NO7P+HCOO] 1-) was 287.8 Å².
With `CCCCC/C=C\C/C=C\CCCCCCCC(=O)O[C@H](COCCCCCCCC/C=C\CCCCCC)COP(=O)([O-])OCC[N+](C)(C)C` [PC O- 16:1@_18:2] the “TIMS collisional cross section” value (sample type: Human plasma, ion (formula + adduct): [C42H80NO7P-CH3] 1-) was 272.4 Å² and the “TIMS collisional cross section” value (sample type: Mouse Liver, ion (formula + adduct): [C42H80NO7P-CH3] 1-) was 272.4 Å².
For `CC/C=C\C/C=C\C/C=C\C/C=C\CCCCCCC(=O)O[C@H](COCCCCCCCC/C=C\CCCCCC)COP(=O)([O-])OCC[N+](C)(C)C` [PC O- 16:1@_20:4], the “TIMS collisional cross section” value [3] was 296.2 Å², the “TIMS collisional cross section” value (sample type: Human plasma, ion (formula + adduct): [C44H80NO7P-H] 1-) was 278.5 Å² and the “TIMS collisional cross section” value (sample type: Mouse Liver, ion (formula + adduct): [C44H80NO7P+HCOO] 1-) was 292.2 Å². The “TIMS collisional cross section” value (sample type: Mouse Liver, ion (formula + adduct): [C44H80NO7P-CH3] 1-) was 275.7 Å².
For `CC/C=C\C/C=C\C/C=C\C/C=C\CCCCCCC(=O)O[C@H](COCCCCCCCC/C=C\CCCCCC)COP(=O)([O-])OCC[N+](C)(C)C` [PC O- 16:1_20:4], the “TIMS collisional cross section” value (sample type: Human plasma, ion (formula + adduct): [C44H80NO7P+HCOO] 1-) was 292.2 Å².
For `CCCCCCCCCCCCCCCCCCOC[C@H](COP(=O)([O-])OCC[N+](C)(C)C)OC(=O)CCCCCCCCCCCCCCC` [PC O- 18:0@_16:0], the “TIMS collisional cross section” value (sample type: Human plasma, ion (formula + adduct): [C42H86NO7P+HCOO] 1-) was 293.5 Å².
In the case of `CCCCC/C=C\C/C=C\CCCCCCCC(=O)O[C@H](COCCCCCCCCCCCCCCCCCC)COP(=O)([O-])OCC[N+](C)(C)C` [PC O- 18:0@_18:2], the “TIMS collisional cross section” value (sample type: Mouse Liver, ion (formula + adduct): [C44H86NO7P-CH3] 1-) is reported as 276.8 Å².
For `CCCCC/C=C\C/C=C\C/C=C\C/C=C\CCCC(=O)O[C@H](COCCCCCCCCCCCCCCCCCC)COP(=O)([O-])OCC[N+](C)(C)C` [PC O- 18:0@_20:4], the “TIMS collisional cross section” value (sample type: Human plasma, ion (formula + adduct): [C46H86NO7P+HCOO] 1-) was 299 Å².
In the case of `CC/C=C\C/C=C\C/C=C\C/C=C\C/C=C\C/C=C\CCC(=O)O[C@H](COCCCCCCCCCCCCCCCCCC)COP(=O)([O-])OCC[N+](C)(C)C` [PC O- 18:0@_22:6], the “TIMS collisional cross section” value (sample type: Human plasma, ion (formula + adduct): [C48H86NO7P+HCOO] 1-) is reported as 303.2 Å².
With `CCCCCCCC/C=C\CCCCCCCCOC[C@H](COP(=O)([O-])OCC[N+](C)(C)C)OC(=O)CCCCCCCCCCCCCCC` [PC O- 18:1@_16:0] the “TIMS collisional cross section” value (sample type: Human plasma, ion (formula + adduct): [C42H84NO7P+HCOO] 1-) was 291.1 Å².
With `CCCCC/C=C\C/C=C\C/C=C\C/C=C\CCCC(=O)O[C@H](COCCCCCCCC/C=C\CCCCCCCC)COP(=O)([O-])OCC[N+](C)(C)C` [PC O- 18:1@_20:4] the “TIMS collisional cross section” value (sample type: Human plasma, ion (formula + adduct): [C46H84NO7P+HCOO] 1-) was 297.5 ± 0.42 Å², the “TIMS collisional cross section” value [4] was 282.5 Å² and the “TIMS collisional cross section” value (sample type: Mouse Liver, ion (formula + adduct): [C46H84NO7P+HCOO] 1-) was 296.1 Å². For the same molecule, the “TIMS collisional cross section” value [5] was 282.5 Å².
For `CC/C=C\C/C=C\C/C=C\C/C=C\CCCCCCC(=O)O[C@H](COCCCCCCCCCC/C=C\CCCCCCCC)COP(=O)([O-])OCC[N+](C)(C)C` [PC O- 20:1@_20:4], the “TIMS collisional cross section” value (sample type: Human plasma, ion (formula + adduct): [C48H88NO7P+HCOO] 1-) was 302.3 Å².
In the case of `CCCCCCCC/C=C\CCCCCCCC(=O)O[C@H](CO/C=C\CCCCCCCCCCCC)COP(=O)([O-])OCC[N+](C)(C)C` [PC P- 14:0@_18:1], the “TIMS collisional cross section” value [2] is reported as 267.3 Å².
In the case of `CCCCCC/C=C\CCCCCCCC(=O)O[C@H](CO/C=C\CCCCCCCCCCCCCC)COP(=O)([O-])OCC[N+](C)(C)C` [PC P- 16:0@_16:1], the “TIMS collisional cross section” value (sample type: Mouse Liver, ion (formula + adduct): [C40H78NO7P+OAcO] 1-) is reported as 283.6 Å².
For `CC/C=C\C/C=C\C/C=C\C/C=C\C/C=C\CCCC(=O)O[C@H](CO/C=C\CCCCCCCCCCCCCC)COP(=O)([O-])OCC[N+](C)(C)C` [PC P- 16:0@_20:5], the “TIMS collisional cross section” value (sample type: Human plasma, ion (formula + adduct): [C44H78NO7P+HCOO] 1-) was 292.2 Å² and the “TIMS collisional cross section” value (sample type: Human plasma, ion (formula + adduct): [C44H78NO7P-CH3] 1-) was 275.1 Å².
With `CCCCC/C=C\C/C=C\C/C=C\C/C=C\CCCCCC(=O)O[C@H](CO/C=C\CCCCCCCCCCCCCC)COP(=O)([O-])OCC[N+](C)(C)C` [PC P- 16:0@_22:4] the “TIMS collisional cross section” value [4] was 282.5 Å².
In the case of `CC/C=C\C/C=C\C/C=C\C/C=C\C/C=C\C/C=C\CCC(=O)O[C@H](CO/C=C\CCCCCCCCCCCCCC)COP(=O)([O-])OCC[N+](C)(C)C` [PC P- 16:0@_22:6], the “TIMS collisional cross section” value (sample type: Human plasma, ion (formula + adduct): [C46H80NO7P+HCOO] 1-) is reported as 296.7 Å², the “TIMS collisional cross section” value (sample type: Human plasma, ion (formula + adduct): [C46H80NO7P-CH3] 1-) is reported as 280.2 Å² and the “TIMS collisional cross section” value (sample type: Mouse Liver, ion (formula + adduct): [C46H80NO7P-CH3] 1-) is reported as 279.6 Å².
For `CCCCCCCCCCCCCC/C=C\OC[C@H](COP(=O)([O-])OCC[N+](C)(C)C)OC(=O)CCCCCCCCCCCCCCC` [PC P- 16:0_16:0], the “TIMS collisional cross section” value [1] was 287.8 Å² and the “TIMS collisional cross section” value (sample type: Mouse Liver, ion (formula + adduct): [C40H80NO7P-CH3] 1-) was 267.55 ± 2 Å².
In the case of `CC/C=C\C/C=C\C/C=C\C/C=C\C/C=C\CCCC(=O)O[C@H](CO/C=C\CCCCCCCCCCCCCCCC)COP(=O)([O-])OCC[N+](C)(C)C` [PC P- 18:0@_20:5], the “TIMS collisional cross section” value [6] is reported as 296.1 Å².
